# Assay results published in the supplement of paper PMC10307832.
# Legend:
# Assay in all cases: relative viability (nuclei count vs DMSO), 5 days (fraction); higher = more cells survive
# AT-7519 + Alpelisib = compound: O=C(NC1CCNCC1)c1n[nH]cc1NC(=O)c1c(Cl)cccc1Cl [AT-7519] + Cc1nc(NC(=O)N2CCC[C@H]2C(N)=O)sc1-c1ccnc(C(C)(C)C(F)(F)F)c1 [Alpelisib] (partner 2 µM)
# How it was run: (§1)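 Relative viability divides the nuclei count in treated wells by that in vehicle wells. Lung cancer cell lines were seeded in 1536-well plates, dosed by pin tool the next day, and fixed and stained after 5 days in one step with final 0.05% Triton X-100, 1% formaldehyde and 1 ug/ml Hoechst. Dosing was a single drug or a fixed anchor-drug dose plus five library-drug doses (not always all listed) in √10 steps, and values are medians of duplicate plates imaged at 4×.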
# [1] = compound: C1=CC2=C(C=C(C(=C2N=C1)O)N=NC3=CC4=C(C=C3)C=C(C=C4)S(=O)(=O)O)S(=O)(=O)O + CC(=O)c1c(C)c2cnc(Nc3ccc(N4CCNCC4)cn3)nc2n(C2CCCC2)c1=O [Palbociclib] (partner 0.5 µM)
# How it was run: as §1
# AT-7519 + Decitabine = compound: O=C(NC1CCNCC1)c1n[nH]cc1NC(=O)c1c(Cl)cccc1Cl [AT-7519] + Nc1ncn([C@H]2C[C@H](O)[C@@H](CO)O2)c(=O)n1 [Decitabine] (partner 2 µM)
# How it was run: as §1
# [2] = compound: C1=CC2=C(C=C(C(=C2N=C1)O)N=NC3=CC4=C(C=C3)C=C(C=C4)S(=O)(=O)O)S(=O)(=O)O + Nc1nc2[nH]cc(CCc3ccc(C(=O)N[C@@H](CCC(=O)O)C(=O)O)cc3)c2c(=O)[nH]1 [Pemetrexed] (partner 0.2 µM)
# How it was run: as §1
Cell Line,relative viability (AT-7519 + Alpelisib; first compound 0.01 µM),relative viability (AT-7519 + Alpelisib; first compound 0.03162 µM),relative viability (AT-7519 + Alpelisib; first compound 0.3162 µM),relative viability (AT-7519 + Alpelisib; first compound 1 µM),relative viability ([1]; first compound 0.08 µM),relative viability ([1]; first compound 0.253 µM),relative viability ([1]; first compound 0.8 µM),relative viability ([1]; first compound 2.53 µM),relative viability ([1]; first compound 8 µM),relative viability (AT-7519 + Decitabine; first compound 0.01 µM),relative viability (AT-7519 + Decitabine; first compound 0.03162 µM),relative viability (AT-7519 + Decitabine; first compound 0.3162 µM),relative viability (AT-7519 + Decitabine; first compound 1 µM),relative viability ([2]; first compound 0.08 µM),relative viability ([2]; first compound 0.253 µM),relative viability ([2]; first compound 0.8 µM),relative viability ([2]; first compound 2.53 µM),relative viability ([2]; first compound 8 µM)
NCI-H2170,0.828,0.796,0.794,0.81,0.469,0.401,0.393,0.438,0.402,0.495,0.454,0.461,0.522,0.288,0.281,0.284,0.266,0.251
NCI-H460,0.667,0.526,0.322,0.0207,0.174,0.081,0.183,0.279,0.229,0.452,0.432,0.388,0.0681,0.0636,0.0585,0.066,0.0648,0.0698
NCI-H661,0.488,0.445,0.758,0.506,0.4,0.407,0.44,0.443,0.421,0.568,0.538,0.534,0.254,0.891,0.925,0.893,0.945,0.901
HCC-15,0.959,0.905,0.763,0.406,0.759,0.658,0.737,0.67,0.723,0.59,0.567,0.498,0.441,0.221,0.229,0.213,0.235,0.24
LCLC-103H,0.956,0.908,0.976,0.952,0.457,0.465,0.484,0.487,0.433,0.785,0.669,0.707,0.653,0.505,0.459,0.493,0.439,0.453
NCI-H441,0.685,0.706,0.617,0.299,0.22,0.206,0.21,0.209,0.216,0.253,0.213,0.26,0.152,0.251,0.27,0.246,0.26,0.297
EPLC-272H,0.905,0.957,0.885,0.856,0.369,0.31,0.325,0.371,0.316,0.367,0.322,0.387,0.298,0.327,0.364,0.358,0.374,0.379
